Measured values taken from PubChem BioAssay AID602130 (Sanford-Burnham Center for Chemical Genomics, 2011).
Calls of active or inactive are those of the source.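 Rule for the calls: active = IC50 at or below 20 µM; inactive = the rest.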

Each compound was assayed against Glucose-6-phosphate 1-dehydrogenase (Homo sapiens) (UniProt P11413) (assay: blockers of human G6PD activity – biochemical, fluorescence, dose response, set 3, selectivity assay for PfG6PD antimalarial inhibitor project, SAR follow-up (AID 602130)). Details: human G6PD enzyme, NADPH resazurin-diaphorase fluorescence.
Glucose-6-phosphate 1-dehydrogenase (Homo sapiens), sequence (P11413 whole entry, looked up): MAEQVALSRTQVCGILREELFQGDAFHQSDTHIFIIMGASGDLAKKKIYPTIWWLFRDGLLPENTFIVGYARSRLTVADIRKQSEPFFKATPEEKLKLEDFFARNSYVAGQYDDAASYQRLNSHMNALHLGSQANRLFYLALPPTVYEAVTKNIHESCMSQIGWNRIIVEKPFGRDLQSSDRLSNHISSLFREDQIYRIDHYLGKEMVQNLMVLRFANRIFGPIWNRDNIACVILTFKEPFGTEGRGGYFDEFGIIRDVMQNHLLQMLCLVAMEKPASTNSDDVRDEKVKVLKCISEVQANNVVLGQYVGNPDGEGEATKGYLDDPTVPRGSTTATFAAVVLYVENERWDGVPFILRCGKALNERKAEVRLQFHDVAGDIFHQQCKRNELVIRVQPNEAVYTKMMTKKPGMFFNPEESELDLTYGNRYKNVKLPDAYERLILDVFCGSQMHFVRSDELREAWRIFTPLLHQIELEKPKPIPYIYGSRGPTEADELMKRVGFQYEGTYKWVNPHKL

SMILES	IC50
O=C(NCCN1CCOCC1)c1ccc2c(c1)NC(=O)c1ccccc1S2	> 80 µM (inactive)
CCN(CC)CCNC(=O)c1ccc2c(c1)NC(=O)/C(=C/c1ccccc1F)S2	> 80 µM (inactive)
O=C(NCCN1CCCCC1)c1ccc2c(c1)NC(=O)c1ccccc1S2	> 80 µM (inactive)
NCCNC(=O)c1ccc2c(c1)NC(=O)c1ccccc1S2	> 80 µM (inactive)
CN(C)c1ccccc1CNC(=O)c1ccc2c(c1)NC(=O)/C(=C/c1ccccc1F)S2	> 80 µM (inactive)
CCN(CC)CCCC(C)Nc1ccnc2cc(Cl)ccc12 (centres undefined)	> 80 µM (inactive)
O=C(NCCNC1CCCCC1)c1ccc2c(c1)NC(=O)c1ccccc1S2	> 80 µM (inactive)
NC1CCN(C(=O)c2ccc3c(c2)NC(=O)c2ccccc2S3)C1 (centres undefined)	> 80 µM (inactive)
NC1CCN(C(=O)c2ccc3c(c2)NC(=O)/C(=C/c2ccccc2F)S3)C1 (centres undefined)	> 80 µM (inactive)
CCC(C)N(CCNC(=O)c1ccc2c(c1)NC(=O)c1ccccc1S2)C1CCCCC1 (centres undefined)	> 80 µM (inactive)

Next, values leading:

IC50	SMILES
> 80 µM (inactive)	CCN1CCCC1CNC(=O)c1ccc2c(c1)NC(=O)/C(=C/c1c(F)cccc1F)S2 (centres undefined)
> 80 µM (inactive)	CCN1CCCC1CNC(=O)c1ccc2c(c1)NC(=O)/C(=C/c1cccc(F)c1F)S2 (centres undefined)
> 80 µM (inactive)	CCN1CCCC1CNC(=O)c1ccc2c(c1)NC(=O)/C(=C/c1cccc(F)c1)S2 (centres undefined)
> 80 µM (inactive)	CCN1CCCC1CNC(=O)c1ccc2c(c1)NC(=O)/C(=C/c1ccc3ccccc3c1)S2 (centres undefined)
> 80 µM (inactive)	CCN1CCC[C@H]1CNC(=O)c1ccc2c(c1)NC(=O)/C(=C/c1ccccc1F)S2
> 80 µM (inactive)	CCN1CCCC1CNC(=O)c1ccc2c(c1)NC(=O)/C(=C/c1ccc(F)cc1)S2 (centres undefined)
> 80 µM (inactive)	CCN1CCC[C@H]1CNC(=O)c1ccc2c(c1)NC(=O)c1ccccc1S2
> 80 µM (inactive)	CCN1CCC[C@@H]1CNC(=O)c1ccc2c(c1)NC(=O)c1ccccc1S2
> 80 µM (inactive)	CCC(C)N1CCCC1CNC(=O)c1ccc2c(c1)NC(=O)c1ccccc1S2 (centres undefined)
> 80 µM (inactive)	CCN1CCCC1CNC(=O)c1ccc2c(c1)NC(=O)C(Cc1ccccc1F)S2 (centres undefined)
> 80 µM (inactive)	CCN1CCC[C@@H]1CNC(=O)c1ccc2c(c1)NC(=O)/C(=C/c1ccccc1F)S2
> 80 µM (inactive)	CCCN1CCCC1CNC(=O)c1ccc2c(c1)NC(=O)/C(=C/c1ccccc1F)S2 (centres undefined)
> 80 µM (inactive)	CC(C)(C)OC(=O)N1CCCC1CNC(=O)c1ccc2c(c1)NC(=O)/C(=C/c1ccccc1F)S2 (centres undefined)
> 80 µM (inactive)	O=C1Nc2cc(C(=O)NCC3CCCN3)ccc2S/C1=C\c1ccccc1F (centres undefined)
